# Results reported in patent publication US7211573B2, “Malonamide derivatives” (Hoffmann-La Roche Inc., priority 2004, dated 2007).
row,SMILES,melting point [°C]
1,"Cc1cccc2c1OC[C@H](NC(=O)C(C)C(=O)NCC(F)(F)C(F)(F)F)C(=O)N2C (stereo partly drawn) [Example 10b, N-((S)-4,9-Dimethyl-8-oxo-6,7,8,9-tetrahydro-5-oxa-9-aza-benzocyclohepten-7-yl)-2-methyl-N′-(2,2,3,3,3-pentafluoro-propyl)-malonamide]",107
2,"CCN1C(=O)[C@@H](NC(=O)C(C)C(=O)NCC(F)(F)C(F)(F)F)COc2ccccc21 (stereo partly drawn) [Example 14, N-((S)-9-Ethyl-8-oxo-6,7,8,9-tetrahydro-5-oxa-9-aza-benzocyclohepten-7-yl)-2-methyl-N′-(2,2,3,3,3-pentafluoro-propyl)-malonamide]",152
3,"CC(C(=O)NCC(F)(F)C(F)(F)F)C(=O)N[C@@H]1C(=O)Nc2cc(F)ccc2O[C@@H]1C (stereo partly drawn) [Example 23, N-((6R,7S)-2-Fluoro-6-methyl-8-oxo-6,7,8,9-tetrahydro-5-oxa-9-aza-benzocyclohepten-7-yl)-2-methyl-N′-(2,2,3,3,3-pentafluoro-propyl)-malonamide]",215 to 216
4,"CC(C(=O)NCC(F)(F)C(F)(F)F)C(=O)N[C@@H]1C(=O)N(C)c2c(F)cccc2O[C@@H]1C (stereo partly drawn) [Example 37, N-((6R,7S)-1-Fluoro-6,9-dimethyl-8-oxo-6,7,8,9-tetrahydro-5-oxa-9-aza-benzocyclohepten-7-yl)-2-methyl-N′-(2,2,3,3,3-pentafluoro-propyl)-malonamide]",126 to 134
5,"CC(C(=O)NCC(F)(F)C(F)(F)F)C(=O)N[C@@H]1C(=O)N(C)c2cc(F)ccc2O[C@@H]1C (stereo partly drawn) [Example 38, N-((6R,7S)-2-Fluoro-6,9-dimethyl-8-oxo-6,7,8,9-tetrahydro-5-oxa-9-aza-benzocyclohepten-7-yl)-2-methyl-N′-(2,2,3,3,3-pentafluoro-propyl)-malonamide]",126 to 134
6,"C[C@H](OC(=O)NCC(F)(F)C(F)(F)F)C(=O)N[C@@H]1C(=O)N(C)c2cc(F)ccc2O[C@@H]1C [Example 48, (2,2,3,3,3-Pentafluoro-propyl)-carbamic acid (S)-1-((6R,7S)-2-fluoro-6,9-dimethyl-8-oxo-6,7,8,9-tetrahydro-5-oxa-9-aza-benzocyclohepten-7-ylcarbamoyl)-ethyl ester]",148 to 150
